Measurements taken from the supplement of paper PMC11061612.

Key:
Assay in all cases: combination Emax (second highest fraction inhibited in the dose matrix, 72 h); higher = more inhibition; extreme values may be limits of the assay
769-P (Kidney Carcinoma) = tested on: 769-P (Kidney Carcinoma)
How it was run: (§1)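 Cell lines in DMEM/F12 or RPMI with 10% FBS were plated in 1536-well plates, held 24 hours at 37°C, 5% CO2, then given two-drug dose matrices for 72 hours (DMSO typically 0.2%). Viability was read by CellTiter-Glo 2.0 luminescence and scaled as inhibition from 0 (vehicle wells) to 1 (blank wells). Combination Emax is the second-highest inhibition in the matrix; Bliss excess is observed combination effect minus expected EA + EB − EA·EB, EA and EB being single-agent effects.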

A101D (Melanoma) = tested on: A101D (Melanoma)
How it was run: as §1

AU565 (Breast Carcinoma) = tested on: AU565 (Breast Carcinoma)
How it was run: as §1

[1] = tested on: CA46 (Burkitt's Lymphoma)
How it was run: as §1

[2] = tested on: CAL-27 (Oral Cavity Carcinoma)
How it was run: as §1

[3] = tested on: DMS-53 (Small Cell Lung Carcinoma)
How it was run: as §1

EW-16 (Ewing's Sarcoma) = tested on: EW-16 (Ewing's Sarcoma)
How it was run: as §1

[4] = tested on: HCC1395 (Breast Carcinoma)
How it was run: as §1

[5] = tested on: JVM-2 (B-Cell Non-Hodgkin's Lymphoma)
How it was run: as §1

KP-N-YN (Neuroblastoma) = tested on: KP-N-YN (Neuroblastoma)
How it was run: as §1

[6] = tested on: KYSE-140 (Esophageal Squamous Cell Carcinoma)
How it was run: as §1

[7] = tested on: KYSE-220 (Esophageal Squamous Cell Carcinoma)
How it was run: as §1

[8] = tested on: LU-165 (Small Cell Lung Carcinoma)
How it was run: as §1

[9] = tested on: NCI-H1703 (Squamous Cell Lung Carcinoma)
How it was run: as §1

[10] = tested on: NCI-H2228 (Lung Adenocarcinoma)
How it was run: as §1

[11] = tested on: NCI-H716 (Colorectal Carcinoma)
How it was run: as §1

PEO1 (Ovarian Carcinoma) = tested on: PEO1 (Ovarian Carcinoma)
How it was run: as §1

[12] = tested on: SK-HEP-1 (Hepatocellular Carcinoma)
How it was run: as §1

[13] = tested on: SW620 (Colorectal Carcinoma)
How it was run: as §1

WM1552C (Melanoma) = tested on: WM1552C (Melanoma)
How it was run: as §1

Row | Compound | combination Emax (769-P (Kidney Carcinoma)) | combination Emax (A101D (Melanoma)) | combination Emax (AU565 (Breast Carcinoma)) | combination Emax [1] | combination Emax [2] | combination Emax [3] | combination Emax (EW-16 (Ewing's Sarcoma)) | combination Emax [4] | combination Emax [5] | combination Emax (KP-N-YN (Neuroblastoma)) | combination Emax [6] | combination Emax [7] | combination Emax [8] | combination Emax [9] | combination Emax [10] | combination Emax [11] | combination Emax (PEO1 (Ovarian Carcinoma)) | combination Emax [12] | combination Emax [13] | combination Emax (WM1552C (Melanoma))
1 | Cc1c2c(nn1C)CSCc1cc(n(C)n1)CSc1cc(c3ccccc3c1)OCCCc1c(C(=O)O)n(C)c3c-2c(Cl)ccc13 [AZD5991] + C[C@@H](Nc1cc(F)cc(F)c1)c1cc(C(=O)N(C)C)cc2c(=O)cc(N3CCOCC3)oc12 [AZD8186] (first compound max 1 µM, 7x7, partner max 3 µM) | 0.223 | 0.952 | 1 | 0.167 | 0.936 | 0.398 | 0.281 | 0.736 | 0.712 | 0.171 | 0.332 | 0.177 | 0.226 | 0.87 | 0.321 | 0.265 | 0.257 | 0.356 | 0.206 | 0.77
2 | CC1(C)CCC(CN2CCN(c3ccc(C(=O)NS(=O)(=O)c4ccc(NCC5CCOCC5)c([N+](=O)[O-])c4)c(Oc4cnc5[nH]ccc5c4)c3)CC2)=C(c2ccc(Cl)cc2)C1 [Venetoclax] + Cc1cc2ncnn2cc1Nc1ncc2c(n1)n(C1CCOCC1)c(=O)n2C [AZD7648] (first compound max 1 µM, 7x7, partner max 10 µM) | 0.171 | 0.451 | 0.295 | 0.132 | 0.174 | 0.428 | 0.193 | 0.654 | 0.528 | 0.542 | 0.398 | 0.145 | 0.196 | 0.465 | 0.4 | 0.203 | 0.163 | 0.219 | 0.175 | 0.444
3 | COc1cccc(OCCCN)c1-c1cc(Nc2cnc(C#N)cn2)n[nH]1 [Prexasertib] + Cc1cc2ncnn2cc1Nc1ncc2c(n1)n(C1CCOCC1)c(=O)n2C [AZD7648] (first compound max 1 µM, 7x7, partner max 10 µM) | 0.819 | 0.762 | 0.745 | 0.653 | 0.426 | 0.293 | 0.558 | 0.855 | 0.956 | 0.992 | 0.953 | 0.935 | 0.58 | 0.951 | 0.682 | 0.662 | 0.415 | 0.296 | 0.698 | 0.763
4 | CCN(CCO)CCCOc1ccc2c(Nc3cc(CC(=O)Nc4cccc(F)c4)[nH]n3)ncnc2c1 [AZD2811] + O=C(c1cc(Cc2n[nH]c(=O)c3ccccc23)ccc1F)N1CCN(C(=O)C2CC2)CC1 [Olaparib] (first compound max 1 µM, 7x7, partner max 10 µM) | 0.144 | 0.261 | 0.214 | 0.248 | 0.778 | 0.181 | 0.626 | 0.328 | 0.738 | 0.541 | 0.355 | 0.214 | 0.29 | 0.519 | 0.268 | 0.367 | 0.29 | 0.362 | 0.281 | 0.377
5 | NC1(C(=O)N[C@@H](CCO)c2ccc(Cl)cc2)CCN(c2ncnc3[nH]ccc23)CC1 [Capivasertib] + CC(C)n1c(=O)n(C)c2cnc3cc(F)c(-c4ccc(OCCCN5CCCCC5)nc4)cc3c21 [AZD1390] (first compound max 10 µM, 7x7, partner max 0.3 µM) | 0.34 | 0.46 | 0.535 | 0.23 | 0.321 | 0.187 | 0.296 | 0.383 | 0.707 | 0.359 | 0.732 | 0.49 | 0.464 | 0.548 | 0.46 | 0.45 | 0.32 | 0.318 | 0.227 | 0.305
6 | Cn1cnc2c(F)c(Nc3ccc(Br)cc3Cl)c(C(=O)NOCCO)cc21 [Selumetinib] + C[C@@H]1COCCN1C2=NC(=NC(=C2)C3(CC3)[S@](=N)(=O)C)C4=C5C=CNC5=NC=C4 [AZD6738] (first compound max 10 µM, 7x7, partner max 10 µM) | 0.888 | 0.76 | 0.315 | 0.579 | 0.63 | 0.151 | 0.587 | 0.571 | 0.825 | 0.949 | 0.786 | 0.753 | 0.304 | 0.881 | 0.405 | 0.577 | 0.441 | 0.223 | 0.781 | 0.59
